≈ marks a conversion by molar mass, not a printed value. Calls of active or inactive are those of the source. The calls are words filed in the database; no cut-off is given here.
Legend:
[1] = target: T1, 5-hydroxytryptamine receptor 1A (Homo sapiens, UniProt P08908); assay: Agonist activity at human 5-HT1A receptor expressed in CHO-K1 cells assessed as stimulation of ERK1/2 phosphorylation incubated for 15 mins by Alpha LISA assay; assay type: functional, cell-based
T1 sequence (P08908 whole entry): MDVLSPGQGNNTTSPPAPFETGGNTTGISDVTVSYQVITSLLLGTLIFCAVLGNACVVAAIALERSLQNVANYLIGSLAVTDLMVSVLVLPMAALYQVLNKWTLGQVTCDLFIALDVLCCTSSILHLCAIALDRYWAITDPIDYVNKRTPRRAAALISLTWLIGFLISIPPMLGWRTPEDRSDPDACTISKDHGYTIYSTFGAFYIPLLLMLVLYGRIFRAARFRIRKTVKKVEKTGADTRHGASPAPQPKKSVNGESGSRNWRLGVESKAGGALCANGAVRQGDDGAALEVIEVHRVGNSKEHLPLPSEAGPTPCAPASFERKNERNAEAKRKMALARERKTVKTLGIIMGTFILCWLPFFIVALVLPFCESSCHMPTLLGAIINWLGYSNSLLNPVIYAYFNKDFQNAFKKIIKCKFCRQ

[2] = target: cAMP and cAMP-inhibited cGMP 3',5'-cyclic phosphodiesterase 10A (Homo sapiens, UniProt Q9Y233); assay: Inhibition of PDE10A (unknown origin) preincubated for 20 mins followed by substrate addition and measured after 1 hr by PEDlight AMP detection reagent based luminescence assay
cAMP and cAMP-inhibited cGMP 3',5'-cyclic phosphodiesterase 10A, sequence (Q9Y233 whole entry): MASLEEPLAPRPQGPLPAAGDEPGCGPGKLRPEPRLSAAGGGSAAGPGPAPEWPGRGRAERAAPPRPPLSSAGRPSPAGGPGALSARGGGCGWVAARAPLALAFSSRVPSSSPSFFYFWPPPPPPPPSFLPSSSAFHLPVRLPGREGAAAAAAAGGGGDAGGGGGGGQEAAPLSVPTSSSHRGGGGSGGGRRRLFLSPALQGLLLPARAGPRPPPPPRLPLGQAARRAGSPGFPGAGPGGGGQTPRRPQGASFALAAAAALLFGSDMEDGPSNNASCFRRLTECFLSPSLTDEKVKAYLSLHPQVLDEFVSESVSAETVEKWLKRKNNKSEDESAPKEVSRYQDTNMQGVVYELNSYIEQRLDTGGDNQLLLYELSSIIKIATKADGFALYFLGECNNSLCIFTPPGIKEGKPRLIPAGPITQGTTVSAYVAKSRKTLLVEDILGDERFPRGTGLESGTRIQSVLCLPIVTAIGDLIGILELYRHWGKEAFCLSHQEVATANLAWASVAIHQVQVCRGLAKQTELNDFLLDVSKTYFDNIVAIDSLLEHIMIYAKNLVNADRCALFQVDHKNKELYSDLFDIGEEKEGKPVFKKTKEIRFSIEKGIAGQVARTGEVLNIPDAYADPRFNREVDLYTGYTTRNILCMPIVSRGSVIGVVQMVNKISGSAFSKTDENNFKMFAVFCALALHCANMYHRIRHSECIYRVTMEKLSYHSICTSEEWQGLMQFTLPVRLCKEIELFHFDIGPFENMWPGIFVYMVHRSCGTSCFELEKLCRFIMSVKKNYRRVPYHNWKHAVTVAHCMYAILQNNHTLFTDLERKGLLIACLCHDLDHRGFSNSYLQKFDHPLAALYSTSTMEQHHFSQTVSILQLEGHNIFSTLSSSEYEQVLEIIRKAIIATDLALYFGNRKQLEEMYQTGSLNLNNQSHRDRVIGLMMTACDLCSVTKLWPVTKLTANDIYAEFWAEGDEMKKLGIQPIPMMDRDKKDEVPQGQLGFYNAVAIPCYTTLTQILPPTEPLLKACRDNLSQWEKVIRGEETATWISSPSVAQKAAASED

Mus musculus = assay: Antipsychotic activity in CD-1 mouse assessed as inhibition of amphetamine-stimulated locomotor activity at 5 mg/kg, ip administered 30 mins prior to amphetamine stimulation and measured after 30 mins; assay type: functional, organism-based; details: time 60.0 min
[3] = target: 5-hydroxytryptamine receptor 7 (Homo sapiens, UniProt P34969); assay: Displacement of [3H]-5-CT from human 5-HT7 receptor expressed in CHO-K1 cells membrane by scintillation counter analysis; assay type: cell membranes
5-hydroxytryptamine receptor 7, sequence (P34969 whole entry): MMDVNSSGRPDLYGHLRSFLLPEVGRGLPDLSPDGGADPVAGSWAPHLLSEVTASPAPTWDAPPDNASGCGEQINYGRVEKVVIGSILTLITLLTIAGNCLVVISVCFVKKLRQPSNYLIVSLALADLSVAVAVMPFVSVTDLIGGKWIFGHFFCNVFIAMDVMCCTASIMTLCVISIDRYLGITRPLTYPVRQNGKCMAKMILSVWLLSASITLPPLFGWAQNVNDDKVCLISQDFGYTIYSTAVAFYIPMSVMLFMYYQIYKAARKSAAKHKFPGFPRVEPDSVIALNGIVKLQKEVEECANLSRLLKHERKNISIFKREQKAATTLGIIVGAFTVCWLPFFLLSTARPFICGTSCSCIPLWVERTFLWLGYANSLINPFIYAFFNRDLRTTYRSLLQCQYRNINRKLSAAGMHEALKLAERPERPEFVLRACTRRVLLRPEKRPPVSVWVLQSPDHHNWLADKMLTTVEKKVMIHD

[4] = target: 5-hydroxytryptamine receptor 2A (Homo sapiens, UniProt P28223); assay: Binding affinity to 5HT-2A receptor (unknown origin)
5-hydroxytryptamine receptor 2A, sequence (P28223 whole entry): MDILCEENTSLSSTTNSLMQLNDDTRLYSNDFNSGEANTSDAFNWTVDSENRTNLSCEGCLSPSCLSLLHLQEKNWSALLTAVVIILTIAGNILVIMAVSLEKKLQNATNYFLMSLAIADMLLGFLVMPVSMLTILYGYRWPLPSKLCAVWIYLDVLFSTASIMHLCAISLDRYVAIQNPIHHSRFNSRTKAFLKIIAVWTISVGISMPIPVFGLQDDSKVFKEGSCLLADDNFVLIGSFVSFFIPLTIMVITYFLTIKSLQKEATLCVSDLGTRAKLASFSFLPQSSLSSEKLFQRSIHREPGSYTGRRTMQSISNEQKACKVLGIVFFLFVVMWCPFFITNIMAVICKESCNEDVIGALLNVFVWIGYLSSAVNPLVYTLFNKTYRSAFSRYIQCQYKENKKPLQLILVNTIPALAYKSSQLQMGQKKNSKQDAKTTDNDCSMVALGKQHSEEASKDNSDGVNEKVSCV

[5] = target: 5-hydroxytryptamine receptor 6 (Homo sapiens) (UniProt P50406); assay: Inhibition of 5-HT6 receptor (unknown origin); details: concentration not given here
5-hydroxytryptamine receptor 6 (Homo sapiens), sequence (P50406 whole entry): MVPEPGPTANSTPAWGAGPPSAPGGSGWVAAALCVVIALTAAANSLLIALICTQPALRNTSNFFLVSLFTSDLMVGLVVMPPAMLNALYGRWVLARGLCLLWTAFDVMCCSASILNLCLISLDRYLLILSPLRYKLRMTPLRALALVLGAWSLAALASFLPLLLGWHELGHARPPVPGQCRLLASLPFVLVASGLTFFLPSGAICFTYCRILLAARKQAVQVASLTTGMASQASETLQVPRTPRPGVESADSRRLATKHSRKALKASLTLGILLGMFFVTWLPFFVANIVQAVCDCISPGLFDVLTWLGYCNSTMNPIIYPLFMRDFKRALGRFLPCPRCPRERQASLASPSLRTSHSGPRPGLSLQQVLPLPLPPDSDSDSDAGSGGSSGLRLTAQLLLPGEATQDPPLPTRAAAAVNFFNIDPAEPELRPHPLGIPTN

[6] = Metabolic stability in human liver microsomes assessed as intrinsic clearance
[7] = Tmax in mouse plasma at 0.625 mg/kg, ip measured up to 480 mins by LC/ESI-MS/MS analysis; assay type: ADME, organism-based
[8] = AUC(0 to t) in mouse plasma at 0.625 mg/kg, ip measured up to 480 mins by LC/ESI-MS/MS analysis; assay type: ADME, organism-based; parameters: time < 480 min, dose 0.625 mg/kg, route ip; details: in vivo, 8 h
[9] = AUC(0 to t) in mouse hippocampus at 0.625 mg/kg, ip by LC/ESI-MS/MS analysis; assay type: ADME, organism-based; parameters: dose 0.625 mg/kg, route ip
[10] = Ratio of drug concentration in Hippocampus to plasma in mouse at 0.625 mg/kg, ip by LC/ESI-MS/MS analysis; assay type: ADME, organism-based; details: hippocampus and plasma
[11] = Cmax in mouse striatum at 0.625 mg/kg, ip by LC/ESI-MS/MS analysis; assay type: ADME, organism-based; parameters: dose 0.625 mg/kg, route ip
[12] = AUC(0 to t) in mouse striatum at 0.625 mg/kg, ip by LC/ESI-MS/MS analysis; assay type: ADME, organism-based; parameters: dose 0.625 mg/kg, route ip
[13] = Ratio of drug concentration in striatum to plasma in mouse at 0.625 mg/kg, ip by LC/ESI-MS/MS analysis; assay type: ADME, organism-based; details: striatum and plasma
[14] = AUC(0 to t) in mouse frontal cortex at 0.625 mg/kg, ip by LC/ESI-MS/MS analysis; assay type: ADME, organism-based; parameters: dose 0.625 mg/kg, route ip
[15] = Ratio of drug concentration in frontal cortex to plasma in mouse at 0.625 mg/kg, ip by LC/ESI-MS/MS analysis; assay type: ADME, organism-based; details: frontal cortex and plasma
[16] = Aqueous solubility of compound in simulated gastric fluid by UV absorbance based analysis; assay type: physicochemical
[17] = Aqueous solubility of compound in simulated intestinal fluid by UV absorbance based analysis; assay type: physicochemical
[18] = Permeability of the compound across apical to basolateral side in human Caco-2 cells at pH 6.5; assay type: ADME, cell-based; details: Caco-2, pH 6.5, read-out: Papp
[19] = Permeability of the compound across apical to basolateral side in human Caco-2 cells at pH 7.4; assay type: ADME, cell-based; details: Caco-2, pH 7.4, read-out: Papp

COc1cc2ncnc(N3CCC(CN4CCN(c5ccc(Cl)cc5)CC4)C3)c2cc1OC (stereo not given)
EC50 [1]: 4.79 µM
IC50 [2]: 1.7 µM
Activity (Mus musculus): Active
Ki [3]: 0.138 µM
Ki [4]: > 1 µM
inhibition [5]: 8%
microsomal CLint [6]: 75.8 µL/min/mg
Tmax [7]: 5 min
AUCt [8]: 730 ng·min/mL
AUC(0-t) [9]: 1040 ng·h/mL
Kp [10]: 85.4
Cmax [11]: 317 ng/mL
AUC(0-t) [12]: 1060 ng·h/mL
Kp [13]: 87.4
AUC(0-t) [14]: 1820 ng·h/mL
Kp [15]: 149
solubility [16]: 196 µM (≈ 91.9 µg/mL)
solubility [17]: 181 µM (≈ 84.7 µg/mL)
Papp A→B [18]: 0.26 ×10⁻⁶ cm/s
Papp A→B [19]: 0.05 ×10⁻⁶ cm/s

Reference: ChEMBL document CHEMBL5143617 (Eur J Med Chem, 2022)
